Results as given in article PMC9459812, “Evaluation of Activity of Sesquiterpene Lactones and Chicory Extracts as Acetylcholinesterase Inhibitors Assayed in Calorimetric and Docking Simulation Studies” (Nutrients, 2022).

Experiments:
[1] = target: T1, acetylcholinesterase (AChE) (Electrophorus electricus, UniProt O42275); test: biochemical; settings: ITC, 36.6 °C, single binding site mode, n = 9, ± SD; read-out: KD (dissociation constant)
[2] = target: T1, acetylcholinesterase (AChE); test: biochemical; settings: ITC, n = 9, ± SD

T1 sequence (O42275 24-633): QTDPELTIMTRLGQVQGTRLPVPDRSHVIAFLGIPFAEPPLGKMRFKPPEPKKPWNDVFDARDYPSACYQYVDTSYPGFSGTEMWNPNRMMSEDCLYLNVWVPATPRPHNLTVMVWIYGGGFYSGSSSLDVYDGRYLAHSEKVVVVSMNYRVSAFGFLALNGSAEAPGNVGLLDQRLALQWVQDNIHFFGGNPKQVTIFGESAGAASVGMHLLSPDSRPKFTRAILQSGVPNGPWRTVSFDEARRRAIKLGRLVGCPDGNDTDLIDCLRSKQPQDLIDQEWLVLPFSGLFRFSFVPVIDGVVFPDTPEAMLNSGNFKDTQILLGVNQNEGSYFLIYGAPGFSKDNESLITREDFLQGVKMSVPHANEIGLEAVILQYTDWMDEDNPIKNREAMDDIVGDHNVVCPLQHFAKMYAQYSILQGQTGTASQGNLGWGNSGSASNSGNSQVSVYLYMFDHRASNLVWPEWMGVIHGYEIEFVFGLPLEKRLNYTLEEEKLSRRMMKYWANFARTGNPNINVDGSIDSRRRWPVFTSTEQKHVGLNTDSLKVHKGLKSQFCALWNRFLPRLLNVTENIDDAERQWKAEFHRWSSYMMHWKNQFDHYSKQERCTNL

C=C1C(=O)O[C@@H]2[C@H]3C(CO)=CC(=O)C3=C(C)C[C@H](OC(=O)Cc3ccc(O)cc3)[C@@H]12 [Lactucopicrin, lactucopicrin]
Kd [1]: 169 ± 0.12 µM
Ki ([2]; dissociation constant of the enzyme–inhibitor complex, read-out: KI (inhibition constant)): 1.32 ± 0.11 µM
IC50 ([2]; inhibitor concentration causing 50% decrease in enzyme activity (converted to lactucine for extracts)): 1.74 ± 0.11 µM
